# Columns and labels:
# Type in all cases: biochemical
# Settings in all cases: Table 6; enzyme inhibition data (Ki)
# [1] = target: T1, JAK3 (Homo sapiens, UniProt P52333); assay: JAK3 inhibition assay (33P incorporation into poly(Glu)4Tyr)
# T1 sequence (P52333 1-1124): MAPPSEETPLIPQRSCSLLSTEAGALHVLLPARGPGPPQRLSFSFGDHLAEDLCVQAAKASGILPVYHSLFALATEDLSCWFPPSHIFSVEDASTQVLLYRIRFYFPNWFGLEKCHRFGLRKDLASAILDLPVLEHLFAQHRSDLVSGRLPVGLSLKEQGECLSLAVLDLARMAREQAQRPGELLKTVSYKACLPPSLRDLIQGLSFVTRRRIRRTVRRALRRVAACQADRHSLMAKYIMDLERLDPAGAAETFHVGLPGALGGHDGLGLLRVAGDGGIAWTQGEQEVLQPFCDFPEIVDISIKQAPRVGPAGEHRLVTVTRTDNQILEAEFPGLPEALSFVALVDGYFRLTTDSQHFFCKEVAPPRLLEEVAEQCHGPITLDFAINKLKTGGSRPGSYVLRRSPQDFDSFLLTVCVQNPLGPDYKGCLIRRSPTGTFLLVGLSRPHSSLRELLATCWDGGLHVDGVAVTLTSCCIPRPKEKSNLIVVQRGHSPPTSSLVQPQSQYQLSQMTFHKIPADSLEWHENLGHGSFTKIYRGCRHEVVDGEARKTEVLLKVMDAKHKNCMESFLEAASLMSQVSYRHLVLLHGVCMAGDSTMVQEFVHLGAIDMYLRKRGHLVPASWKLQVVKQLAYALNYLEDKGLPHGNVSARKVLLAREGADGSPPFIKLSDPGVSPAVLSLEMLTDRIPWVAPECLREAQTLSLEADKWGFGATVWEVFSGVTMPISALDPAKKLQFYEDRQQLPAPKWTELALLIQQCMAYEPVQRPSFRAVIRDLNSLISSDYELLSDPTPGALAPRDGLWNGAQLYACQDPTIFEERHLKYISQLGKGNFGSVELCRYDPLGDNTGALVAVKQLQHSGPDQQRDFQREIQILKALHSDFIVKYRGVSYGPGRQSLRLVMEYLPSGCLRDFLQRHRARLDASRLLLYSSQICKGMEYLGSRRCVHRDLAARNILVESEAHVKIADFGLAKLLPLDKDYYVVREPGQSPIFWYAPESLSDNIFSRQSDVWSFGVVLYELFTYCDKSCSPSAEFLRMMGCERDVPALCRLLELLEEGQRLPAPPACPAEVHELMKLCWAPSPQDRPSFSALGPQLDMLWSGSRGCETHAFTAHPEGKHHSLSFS
# Method in brief: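 After TCA quench and filter harvest, scintillation counting of 33P measured phosphorylation of poly(Glu)4Tyr (1 μM) by 1 nM JAK3. The 20-min, 25° C. reaction contained 5 μM ATP (200 μCi/μmole) in pH 7.4 HEPES buffer with 10 mM MgCl2.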
# [2] = target: JAK2 (Homo sapiens, UniProt O60674); assay: JAK2 inhibition assay (as Example 3 with JAK-2 enzyme)
# Sequence of JAK2 (O60674 whole entry): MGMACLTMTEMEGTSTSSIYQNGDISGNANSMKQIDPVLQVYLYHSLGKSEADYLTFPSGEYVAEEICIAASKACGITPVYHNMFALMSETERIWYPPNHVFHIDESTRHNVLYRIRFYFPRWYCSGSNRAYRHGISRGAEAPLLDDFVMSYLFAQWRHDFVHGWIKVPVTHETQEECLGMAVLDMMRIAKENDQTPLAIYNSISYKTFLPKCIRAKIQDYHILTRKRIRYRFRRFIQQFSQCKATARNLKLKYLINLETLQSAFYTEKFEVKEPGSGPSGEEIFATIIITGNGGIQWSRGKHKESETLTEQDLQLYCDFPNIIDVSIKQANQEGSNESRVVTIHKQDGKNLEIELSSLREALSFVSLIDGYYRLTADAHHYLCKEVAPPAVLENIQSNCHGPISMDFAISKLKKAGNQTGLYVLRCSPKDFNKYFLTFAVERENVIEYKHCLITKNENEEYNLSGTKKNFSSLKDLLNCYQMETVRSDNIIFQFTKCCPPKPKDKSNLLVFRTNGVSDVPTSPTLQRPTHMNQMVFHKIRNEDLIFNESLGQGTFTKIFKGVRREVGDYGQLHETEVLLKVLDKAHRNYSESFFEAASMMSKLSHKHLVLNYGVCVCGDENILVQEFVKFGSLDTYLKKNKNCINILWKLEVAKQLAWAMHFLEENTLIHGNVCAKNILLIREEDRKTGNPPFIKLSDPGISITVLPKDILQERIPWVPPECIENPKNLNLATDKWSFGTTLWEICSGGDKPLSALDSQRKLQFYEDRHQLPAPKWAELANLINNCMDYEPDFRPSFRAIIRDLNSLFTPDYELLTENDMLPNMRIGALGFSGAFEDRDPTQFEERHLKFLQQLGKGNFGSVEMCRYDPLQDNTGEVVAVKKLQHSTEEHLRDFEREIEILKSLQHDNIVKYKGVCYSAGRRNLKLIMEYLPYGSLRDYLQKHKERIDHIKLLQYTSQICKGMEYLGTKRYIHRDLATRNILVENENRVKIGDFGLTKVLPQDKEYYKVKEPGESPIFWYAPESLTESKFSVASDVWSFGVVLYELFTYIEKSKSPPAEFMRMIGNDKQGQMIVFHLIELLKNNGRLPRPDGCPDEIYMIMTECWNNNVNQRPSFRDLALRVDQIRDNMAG
# Method in brief: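 In HEPES pH 7.4 buffer with 10 mM MgCl2, 1 mM DTT, 25 mM NaCl and 0.01% BSA, JAK2 enzyme phosphorylated poly(Glu)4Tyr (final 15 μM) using 33P-ATP (final 12 μM) for 20 min at room temperature (25 °C). Reactions stopped with TCA; incorporated 33P measured by scintillation after filtration.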
# [3] = target: ROCK I (Homo sapiens, UniProt Q13464); assay: ROCK-I inhibition assay (radioactive enzyme assay, MBP substrate)
# Sequence of ROCK I (Q13464 whole entry): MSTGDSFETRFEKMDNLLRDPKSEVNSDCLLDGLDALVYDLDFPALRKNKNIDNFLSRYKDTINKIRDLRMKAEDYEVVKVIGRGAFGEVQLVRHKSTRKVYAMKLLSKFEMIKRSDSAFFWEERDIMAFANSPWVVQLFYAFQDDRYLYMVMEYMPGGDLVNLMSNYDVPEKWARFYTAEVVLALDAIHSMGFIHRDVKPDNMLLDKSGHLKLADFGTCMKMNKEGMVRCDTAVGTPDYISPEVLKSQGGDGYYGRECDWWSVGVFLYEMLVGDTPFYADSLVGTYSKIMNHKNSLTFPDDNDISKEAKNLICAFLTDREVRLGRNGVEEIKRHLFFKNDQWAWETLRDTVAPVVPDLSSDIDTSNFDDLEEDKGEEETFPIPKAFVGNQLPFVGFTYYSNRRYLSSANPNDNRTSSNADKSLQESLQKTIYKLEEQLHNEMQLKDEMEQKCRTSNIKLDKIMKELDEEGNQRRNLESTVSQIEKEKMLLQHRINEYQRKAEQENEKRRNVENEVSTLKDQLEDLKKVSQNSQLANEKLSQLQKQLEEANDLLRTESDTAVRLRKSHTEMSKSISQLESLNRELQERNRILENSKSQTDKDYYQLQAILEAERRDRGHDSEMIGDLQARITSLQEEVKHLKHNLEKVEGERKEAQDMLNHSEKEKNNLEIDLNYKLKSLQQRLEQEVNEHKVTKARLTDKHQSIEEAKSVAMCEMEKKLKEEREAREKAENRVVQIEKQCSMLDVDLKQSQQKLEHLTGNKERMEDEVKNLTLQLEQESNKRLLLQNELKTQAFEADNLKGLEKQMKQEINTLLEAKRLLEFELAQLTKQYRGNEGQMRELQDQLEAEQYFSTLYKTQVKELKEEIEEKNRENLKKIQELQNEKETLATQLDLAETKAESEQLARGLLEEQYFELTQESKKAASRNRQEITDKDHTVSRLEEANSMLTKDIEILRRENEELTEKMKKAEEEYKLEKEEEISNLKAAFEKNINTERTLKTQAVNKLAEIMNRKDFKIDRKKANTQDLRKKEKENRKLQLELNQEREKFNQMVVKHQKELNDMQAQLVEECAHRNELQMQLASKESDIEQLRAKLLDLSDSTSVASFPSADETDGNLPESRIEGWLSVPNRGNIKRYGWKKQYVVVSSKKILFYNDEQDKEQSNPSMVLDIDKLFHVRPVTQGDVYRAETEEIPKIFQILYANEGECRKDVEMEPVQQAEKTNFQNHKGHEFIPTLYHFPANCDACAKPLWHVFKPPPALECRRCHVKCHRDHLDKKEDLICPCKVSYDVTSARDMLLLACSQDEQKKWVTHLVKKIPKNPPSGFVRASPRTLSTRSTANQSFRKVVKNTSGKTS
# Method in brief: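 Human ROCK at 5 nM phosphorylated 27 μM myelin basic protein with 13 μM [γ-33P]ATP (final) in HEPES pH 7.5, MgCl2, NaCl, DTT and 1.5% DMSO. Reactions ran 2 h at room temperature before TCA quench and filter-plate scintillation counting. After background subtraction, data were fit to give Ki(app).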
smiles,measurement,setting,value
CCCNC(=O)c1cc(-c2c(Cl)cnc3[nH]ccc23)c[nH]1 [compound 279],Ki,[1],< 500 nM
same,Ki,[2],< 500 nM
same,Ki,[3],500 to 5000 nM
CC(C)NC(=O)c1cc(-c2c(Cl)cnc3[nH]ccc23)c[nH]1 [compound 280],Ki,[1],< 500 nM
same,Ki,[2],< 500 nM
same,Ki,[3],500 to 5000 nM
O=C(NC1CC1)c1cc(-c2c(Cl)cnc3[nH]ccc23)c[nH]1 [compound 281],Ki,[1],< 500 nM
same,Ki,[2],< 500 nM
same,Ki,[3],500 to 5000 nM
CCNC(=O)c1cc(-c2ccnc3[nH]ccc23)c[nH]1 [compound 282],Ki,[1],< 500 nM
same,Ki,[2],< 500 nM
same,Ki,[3],< 500 nM
CCCNC(=O)c1cc(-c2ccnc3[nH]ccc23)c[nH]1 [compound 283],Ki,[1],< 500 nM
same,Ki,[2],< 500 nM
same,Ki,[3],< 500 nM
CCC(CC)NC(=O)c1cc(-c2ccnc3[nH]ccc23)c[nH]1 [compound 284],Ki,[1],< 500 nM
same,Ki,[2],< 500 nM
same,Ki,[3],< 500 nM
O=C(NC1CC1)c1cc(-c2ccnc3[nH]ccc23)c[nH]1 [compound 285],Ki,[1],< 500 nM
same,Ki,[2],< 500 nM
same,Ki,[3],< 500 nM
O=C(NCC1CC1)c1cc(-c2ccnc3[nH]ccc23)c[nH]1 [compound 286],Ki,[1],< 500 nM
same,Ki,[2],< 500 nM
same,Ki,[3],< 500 nM
O=C(NC1CCC1)c1cc(-c2ccnc3[nH]ccc23)c[nH]1 [compound 287],Ki,[1],< 500 nM
same,Ki,[2],< 500 nM
same,Ki,[3],< 500 nM
O=C(NC1CCCCC1)c1cc(-c2ccnc3[nH]ccc23)c[nH]1 [compound 288],Ki,[1],< 500 nM
same,Ki,[2],< 500 nM
same,Ki,[3],< 500 nM
CC[C@@H](C)NC(=O)c1cc(-c2ccnc3[nH]ccc23)c[nH]1 [compound 289],Ki,[1],< 500 nM
same,Ki,[2],< 500 nM
same,Ki,[3],< 500 nM
CC[C@H](C)NC(=O)c1cc(-c2ccnc3[nH]ccc23)c[nH]1 [compound 290],Ki,[1],500 to 5000 nM
same,Ki,[2],< 500 nM
same,Ki,[3],< 500 nM
CC(C)CNC(=O)c1cc(-c2ccnc3[nH]ccc23)c[nH]1 [compound 291],Ki,[1],< 500 nM
same,Ki,[2],< 500 nM
same,Ki,[3],< 500 nM
O=C(NCC(F)F)c1cc(-c2ccnc3[nH]ccc23)c[nH]1 [compound 292],Ki,[1],< 500 nM
same,Ki,[2],< 500 nM
same,Ki,[3],< 500 nM
O=C(NCCC(F)(F)F)c1cc(-c2ccnc3[nH]ccc23)c[nH]1 [compound 293],Ki,[1],< 500 nM
same,Ki,[2],< 500 nM
same,Ki,[3],< 500 nM
C#CCNC(=O)c1cc(-c2ccnc3[nH]ccc23)c[nH]1 [compound 294],Ki,[1],< 500 nM
same,Ki,[2],< 500 nM
same,Ki,[3],< 500 nM
N#CCNC(=O)c1cc(-c2ccnc3[nH]ccc23)c[nH]1 [compound 295],Ki,[1],< 500 nM
same,Ki,[2],< 500 nM
same,Ki,[3],< 500 nM
N#CCCNC(=O)c1cc(-c2ccnc3[nH]ccc23)c[nH]1 [compound 296],Ki,[1],< 500 nM
same,Ki,[2],< 500 nM
same,Ki,[3],< 500 nM
CCN(CCC#N)C(=O)c1cc(-c2ccnc3[nH]ccc23)c[nH]1 [compound 297],Ki,[1],< 500 nM
same,Ki,[2],< 500 nM
same,Ki,[3],< 500 nM
C=CCN(CC=C)C(=O)c1cc(-c2ccnc3[nH]ccc23)c[nH]1 [compound 298],Ki,[1],< 500 nM
same,Ki,[2],< 500 nM
same,Ki,[3],< 500 nM
N#CCCN(Cc1cccnc1)C(=O)c1cc(-c2ccnc3[nH]ccc23)c[nH]1 [compound 299],Ki,[1],< 500 nM
same,Ki,[2],< 500 nM
same,Ki,[3],< 500 nM
CCCCN(CC#N)C(=O)c1cc(-c2ccnc3[nH]ccc23)c[nH]1 [compound 300],Ki,[1],< 500 nM
same,Ki,[2],< 500 nM
same,Ki,[3],< 500 nM
CCCN(CC1CC1)C(=O)c1cc(-c2ccnc3[nH]ccc23)c[nH]1 [compound 301],Ki,[1],< 500 nM
same,Ki,[2],< 500 nM
same,Ki,[3],< 500 nM
CCCN(CCC#N)C(=O)c1cc(-c2ccnc3[nH]ccc23)c[nH]1 [compound 302],Ki,[1],< 500 nM
same,Ki,[2],< 500 nM
same,Ki,[3],< 500 nM
CCCCN(CCC#N)C(=O)c1cc(-c2ccnc3[nH]ccc23)c[nH]1 [compound 303],Ki,[1],< 500 nM
same,Ki,[2],< 500 nM
same,Ki,[3],< 500 nM
CCN(Cc1ccccc1)C(=O)c1ccc(-c2ccnc3[nH]ccc23)s1 [compound 304],Ki,[1],< 500 nM
same,Ki,[2],< 500 nM
same,Ki,[3],< 500 nM
CCN(Cc1ccccn1)C(=O)c1cc(-c2ccnc3[nH]ccc23)c[nH]1 [compound 305],Ki,[1],< 500 nM
same,Ki,[2],< 500 nM
same,Ki,[3],500 to 5000 nM
CN(CCC#N)C(=O)c1cc(-c2ccnc3[nH]ccc23)c[nH]1 [compound 306],Ki,[1],< 500 nM
same,Ki,[2],< 500 nM
same,Ki,[3],< 500 nM
C#CCN(C)C(=O)c1cc(-c2ccnc3[nH]ccc23)c[nH]1 [compound 307],Ki,[1],< 500 nM
same,Ki,[2],< 500 nM
same,Ki,[3],< 500 nM
COCCN(CCOC)C(=O)c1cc(-c2ccnc3[nH]ccc23)c[nH]1 [compound 308],Ki,[1],< 500 nM
same,Ki,[2],< 500 nM
same,Ki,[3],500 to 5000 nM
CCCN(CCC)C(=O)c1cc(-c2ccnc3[nH]ccc23)c[nH]1 [compound 309],Ki,[1],< 500 nM
same,Ki,[2],< 500 nM
same,Ki,[3],< 500 nM
CC(C)CN(C)C(=O)c1cc(-c2ccnc3[nH]ccc23)c[nH]1 [compound 310],Ki,[1],< 500 nM
same,Ki,[2],< 500 nM
same,Ki,[3],500 to 5000 nM
CC(C)CN(CC(C)C)C(=O)c1cc(-c2ccnc3[nH]ccc23)c[nH]1 [compound 311],Ki,[1],< 500 nM
same,Ki,[2],< 500 nM
same,Ki,[3],< 500 nM
N#CCCN(Cc1ccccc1)C(=O)c1cc(-c2ccnc3[nH]ccc23)c[nH]1 [compound 312],Ki,[1],< 500 nM
same,Ki,[2],< 500 nM
same,Ki,[3],< 500 nM
CCN(Cc1ccccc1)C(=O)c1cc(-c2ccnc3[nH]ccc23)c[nH]1 [compound 313],Ki,[1],< 500 nM
same,Ki,[2],< 500 nM
same,Ki,[3],< 500 nM
CCN(CCC#N)C(=O)c1ccc(-c2ccnc3[nH]ccc23)s1 [compound 314],Ki,[1],< 500 nM
same,Ki,[2],< 500 nM
same,Ki,[3],< 500 nM
C=CCN(CC=C)C(=O)c1ccc(-c2ccnc3[nH]ccc23)s1 [compound 315],Ki,[1],< 500 nM
same,Ki,[2],< 500 nM
same,Ki,[3],< 500 nM
N#CCCN(Cc1cccnc1)C(=O)c1ccc(-c2ccnc3[nH]ccc23)s1 [compound 316],Ki,[1],< 500 nM
same,Ki,[2],< 500 nM
same,Ki,[3],< 500 nM
CCCCN(CC#N)C(=O)c1ccc(-c2ccnc3[nH]ccc23)s1 [compound 317],Ki,[1],< 500 nM
same,Ki,[2],< 500 nM
same,Ki,[3],< 500 nM
CCN(Cc1ccccn1)C(=O)c1ccc(-c2ccnc3[nH]ccc23)s1 [compound 318],Ki,[1],< 500 nM
same,Ki,[2],< 500 nM
same,Ki,[3],< 500 nM
CCCN(CC1CC1)C(=O)c1ccc(-c2ccnc3[nH]ccc23)s1 [compound 319],Ki,[1],< 500 nM
same,Ki,[2],< 500 nM
same,Ki,[3],< 500 nM
CCCN(CCC#N)C(=O)c1ccc(-c2ccnc3[nH]ccc23)s1 [compound 320],Ki,[1],< 500 nM
same,Ki,[2],< 500 nM
same,Ki,[3],< 500 nM
CCCCN(CCC#N)C(=O)c1ccc(-c2ccnc3[nH]ccc23)s1 [compound 321],Ki,[1],< 500 nM
same,Ki,[2],< 500 nM
same,Ki,[3],< 500 nM
CN(CCC#N)C(=O)c1ccc(-c2ccnc3[nH]ccc23)s1 [compound 322],Ki,[1],< 500 nM
same,Ki,[2],< 500 nM
same,Ki,[3],< 500 nM
C#CCN(C)C(=O)c1ccc(-c2ccnc3[nH]ccc23)s1 [compound 323],Ki,[1],< 500 nM
same,Ki,[2],< 500 nM
same,Ki,[3],< 500 nM
COCCN(CCOC)C(=O)c1ccc(-c2ccnc3[nH]ccc23)s1 [compound 324],Ki,[1],< 500 nM
same,Ki,[2],< 500 nM
same,Ki,[3],< 500 nM
CCCN(CCC)C(=O)c1ccc(-c2ccnc3[nH]ccc23)s1 [compound 325],Ki,[1],< 500 nM
same,Ki,[2],< 500 nM
same,Ki,[3],< 500 nM
CC(C)CN(C)C(=O)c1ccc(-c2ccnc3[nH]ccc23)s1 [compound 326],Ki,[1],< 500 nM
same,Ki,[2],< 500 nM
same,Ki,[3],< 500 nM

# From US8921376B2, “Pyrrolopyridines useful as inhibitors of protein kinase” (Vertex Pharmaceuticals Incorporated, priority 2005, dated 2014)
